From patent US20260001849A1, “NOVEL B0AT1 INHIBITOR” (MITSUBISHI TANABE PHARMA CORPORATION, priority 2023, published 2026)

biological target: T1, Human BOAT1 (Homo sapiens, UniProt Q695T7); assay: hBOAT1 inhibitory test (phenylalanine uptake); assay type: cell-based; conditions: Human BOAT1 stable expression CHO cells; [3H]-L-phenylalanine uptake, phenylalanine 0.25 mM; radioactivity after 100 to 200 min; read-out: hB0AT1 IC50
T1 construct: expressed in transfected cells
T1 sequence (Q695T7 1-634): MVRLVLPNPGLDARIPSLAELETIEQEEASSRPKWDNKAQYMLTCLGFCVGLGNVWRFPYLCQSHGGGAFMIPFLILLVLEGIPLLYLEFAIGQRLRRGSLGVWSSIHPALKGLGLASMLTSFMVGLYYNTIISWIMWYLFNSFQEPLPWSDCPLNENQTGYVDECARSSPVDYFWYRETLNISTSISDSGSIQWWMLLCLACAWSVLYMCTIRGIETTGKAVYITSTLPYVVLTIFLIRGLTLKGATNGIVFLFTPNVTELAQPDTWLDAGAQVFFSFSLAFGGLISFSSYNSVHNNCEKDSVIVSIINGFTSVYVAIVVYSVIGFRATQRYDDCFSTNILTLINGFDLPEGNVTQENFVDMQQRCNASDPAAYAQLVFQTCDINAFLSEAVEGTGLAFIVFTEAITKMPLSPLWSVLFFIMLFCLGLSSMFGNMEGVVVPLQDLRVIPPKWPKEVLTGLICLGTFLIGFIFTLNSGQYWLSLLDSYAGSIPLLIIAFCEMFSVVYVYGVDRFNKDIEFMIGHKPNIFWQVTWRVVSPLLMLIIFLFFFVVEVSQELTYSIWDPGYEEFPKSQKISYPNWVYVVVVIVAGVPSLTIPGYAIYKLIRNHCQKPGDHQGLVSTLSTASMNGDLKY
Method: A test compound dissolved in dimethyl sulfoxide (DMSO) was added to a 96 well plate for solid phase radioactivity measurement containing a scintillator at the bottom of the well (final concentration of DMSO 0.5%). DMSO alone as a control and DMSO containing N-(4-bromophenyl)-3,5-dichloro-2-hydroxybenzamide (final concentration […]) for the measurement of BOAT1 non-specific uptake were similarly added at 0.5 μL per well. Human BOAT1 stable expression CHO cells suspended in a buffer (buffer containing 96 mM sodium chloride, 2 mM potassium chloride, 1.8 mM calcium chloride, 1 mM magnesium chloride, 0.01% bovine serum albumin, and 10 mM 2-[4-(2-hydroxyethyl)-1-piperazinyl]ethanesulfonic acid) were added by 90 μL to 75000 cells/well. After standing at ordinary temperature for 30 min or longer, the cells were subjected to a phenylalanine uptake experiment. A buffer containing L-phenylalanine and [3,4,5-3H]-L-phenylalanine was added by 10 μL per well (final concentration of phenylalanine 0.25 mM), and the radioactivity of the plate bottom surface at ordinary temperature was measured with a scintillation counter over time, and the radioactivity value after 100 to 200 min was analyzed.

Structure (SMILES)	IC50 [µM]
COC(=O)CNc1ccc2c(c1)CCN(C(=O)CNC(=O)/C=C/c1ccc(C(F)(F)F)cc1)C2 [I-11]	0.081
O=C(/C=C/c1ccc(C(F)(F)F)cc1)NCC(=O)N1CCc2cc(N3CCC(C(=O)O)CC3)ccc2C1 [I-161]	0.259
O=C(O)Cc1ccc2c(c1)CCN(C(=O)CNC(=O)/C=C/c1ccc(C(F)(F)F)cc1)CC2 [I-140, 2-[3-[2-[[(E)-3-[4-(trifluoromethyl)phenyl]prop-2-enoyl]amino]acetyl]-1,2,4,5-tetrahydro-3-benzazepin-7-yl]acetic acid]	0.436
CCC1c2ccc(CC(=O)O)cc2CCN1C(=O)CNC(=O)/C=C/c1ccc(C(F)(F)F)cc1 (stereo not shown) [I-216]	0.358
CNC(=O)Cc1cnn2c1CN(C(=O)CNC(=O)/C=C/c1ccc(C(F)(F)F)cc1)CC2 [I-374]	0.054
O=C(O)Cc1ccc2c(c1)C(O)CN(C(=O)CNC(=O)/C=C/c1ccc(C(F)(F)F)cc1)C2 (stereo not shown) [I-213]	0.156
CC(CC(=O)O)c1ccc2c(c1)CCN(C(=O)CNC(=O)/C=C/c1ccc(C(F)(F)F)cc1)C2 (stereo not shown) [I-164]	0.386
O=C(O)CCCc1ccc2c(c1)CCN(C(=O)CNC(=O)/C=C/c1ccc(C(F)(F)F)cc1)C2 [I-170]	0.24
C[C@H]1CN(CCCC(=O)O)C[C@H](c2ccccc2)N1C(=O)CNC(=O)/C=C/c1ccc(C(F)(F)F)cc1F [I-370]	0.143
COC(=O)CCCN1CCN(C(=O)CNC(=O)/C=C/c2ccc(C(F)(F)F)cc2)C(c2ccccc2)C1 (stereo not shown) [I-4]	0.05

Next, values leading:

IC50 [µM]	Structure (SMILES)
0.124	Cc1cc2c(cc1CC(=O)O)CCN(C(=O)CNC(=O)/C=C/c1ccc(C(F)(F)F)cc1)C2 [I-230]
0.223	CC(Cc1ccc2c(c1)CCN(C(=O)CNC(=O)/C=C/c1ccc(C(F)(F)F)cc1)C2)C(=O)O (stereo not shown) [I-163]
0.251	O=C(O)CCc1ncc2c(n1)CCN(C(=O)CNC(=O)/C=C/c1ccc(C(F)(F)F)cc1)C2 [I-156]
0.366	O=C(/C=C/c1ccc(C(F)(F)F)cc1F)NCC(=O)N1CCN(Cc2ccc(C(=O)O)cc2)CC1c1ccc(Cl)cc1 (stereo not shown) [I-251]
0.202	O=C(O)CNc1ccc2c(c1)CN(C(=O)CNC(=O)/C=C/c1ccc(C(F)(F)F)cc1)CC2 [I-217]

same assay, conditions: Human BOAT1 stable expression CHO cells; phenylalanine uptake, phenylalanine 0.25 mM; read-out: hB0AT1 IC50

Structure (SMILES)	IC50 [µM]
NC(=O)Cc1ccc2c(c1)CCN(C(=O)CNC(=O)/C=C/c1ccc(C(F)(F)F)cc1)C2 [I-273, (E)-N-[2-[6-(2-amino-2-oxoethyl)-3,4-dihydro-1H-isoquinolin-2-yl]-2-oxoethyl]-3-[4-(trifluoromethyl)phenyl]prop-2-enamide]	0.022
O=C(O)CCCN1C[C@H](c2ccccc2)N(C(=O)CNC(=O)/C=C/c2ccc(C(F)(F)F)cc2F)C[C@H]1C(F)(F)F [I-399]	2.89
O=C(O)CCCN1CCN(C(=O)CNC(=O)/C=C/c2ccc(C(F)(F)F)cc2F)C(c2noc3ccccc23)C1 (stereo not shown) [I-400]	0.292
C[C@@H]1CN(C(=O)CNC(=O)/C=C/c2ccc(C(F)(F)F)cc2F)[C@@H](c2ccccc2)CN1CC#CC(=O)O [I-320]	0.352
CC1(C)CN(C(=O)CNC(=O)/C=C/c2ccc(C(F)(F)F)cc2F)[C@@H](c2ccccc2)CN1CCCC(=O)O [I-259]	0.14

Further lines, results first:

IC50 [µM]	Structure (SMILES)
0.097	CC(C)(CCN1CCN(C(=O)CNC(=O)/C=C/c2ccc(C(F)(F)F)cc2F)C(c2ccc(Cl)cc2)C1)C(=O)O (stereo not shown) [I-254]
0.7	CNC(=O)Cn1cc2c(n1)CN(C(=O)CNC(=O)/C=C/c1ccc(C(F)(F)F)cc1)CC2 [I-282]
2.69	CC(CN1C[C@H](c2ccccc2)N(C(=O)CNC(=O)/C=C/c2ccc(C(F)(F)F)cc2F)C[C@H]1C)C(=O)O (stereo partly shown) [I-347]
1.2	O=C(O)CCCN1CCN(C(=O)CNC(=O)/C=C/c2ccc(C(F)(F)F)cc2F)C(c2cccc(Br)c2)C1 (single isomer, unassigned) [I-292, 4-[3-(3-bromophenyl)-4-[2-[[(E)-3-[2-fluoro-4-(trifluoromethyl)phenyl]prop-2-enoyl]amino]acetyl]piperazin-1-yl]butanoic acid]
0.223	CN1CCN(C(=O)CNC(=O)/C=C/c2ccc(C(F)(F)F)cc2F)CC1c1cccc(CC(=O)O)c1 (stereo not shown) [I-358]
